Drawing on patent US11339130B1 (Blade Therapeutics, Inc., priority 2016, dated 2022), this text covers IC50 for twelve compounds.

Assay [1] concerns Calpain activity in SH-SY5Y cells (SBDP-150). The experiment in a line: SH-SY5Y Spectrin western blot assay (SBDP-150 breakdown product, A23187-induced). Type of assay: cell-based. The settings on record: Homo sapiens, SH-SY5Y cells, read-out: SH-SY5Y Spectrin IC50. On the technique in general: A western blot detects proteins with antibodies after separation by electrophoresis.
The subject of assay [2] is Calpain activity in SH-SY5Y cells. The experiment in a line: SH-SY5Y + AMC fluorescence assay (Suc-LLVY-AMC substrate). The following applies: read-out: SH-SY5Y + AMC IC50. Type of assay: cell-based.
Assay [3] has as its target T1, Human Calpain 1/NS1 (Homo sapiens, UniProt P07384).
T1 sequence (P07384 1-714): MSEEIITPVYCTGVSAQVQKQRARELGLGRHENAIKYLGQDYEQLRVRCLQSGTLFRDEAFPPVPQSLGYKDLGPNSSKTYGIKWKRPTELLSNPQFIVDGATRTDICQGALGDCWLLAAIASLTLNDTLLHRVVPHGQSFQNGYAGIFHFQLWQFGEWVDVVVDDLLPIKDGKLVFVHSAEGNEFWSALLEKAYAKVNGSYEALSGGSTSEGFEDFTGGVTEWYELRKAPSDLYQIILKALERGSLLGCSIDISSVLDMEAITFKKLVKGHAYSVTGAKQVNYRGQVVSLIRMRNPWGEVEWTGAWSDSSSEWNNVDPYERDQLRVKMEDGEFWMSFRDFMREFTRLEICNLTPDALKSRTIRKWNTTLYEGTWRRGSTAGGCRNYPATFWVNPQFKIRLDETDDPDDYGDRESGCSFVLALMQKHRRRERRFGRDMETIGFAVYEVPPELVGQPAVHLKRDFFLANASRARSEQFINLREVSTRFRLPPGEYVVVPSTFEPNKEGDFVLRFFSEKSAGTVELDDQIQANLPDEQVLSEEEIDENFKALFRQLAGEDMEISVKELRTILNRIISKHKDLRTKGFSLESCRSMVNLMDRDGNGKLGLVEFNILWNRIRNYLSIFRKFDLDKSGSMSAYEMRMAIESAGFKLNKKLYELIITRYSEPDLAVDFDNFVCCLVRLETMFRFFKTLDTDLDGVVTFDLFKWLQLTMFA
T1 sequence (P04632 1-268 partner): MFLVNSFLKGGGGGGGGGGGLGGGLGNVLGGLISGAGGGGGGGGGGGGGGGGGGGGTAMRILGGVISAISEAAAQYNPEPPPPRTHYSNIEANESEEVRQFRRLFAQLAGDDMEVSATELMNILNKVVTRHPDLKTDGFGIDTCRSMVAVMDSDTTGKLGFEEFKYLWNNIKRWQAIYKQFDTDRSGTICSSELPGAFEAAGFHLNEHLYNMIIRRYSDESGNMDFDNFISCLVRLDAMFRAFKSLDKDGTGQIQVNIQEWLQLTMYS
The experiment in a line: Calpain inhibition continuous fluorescence (FRET) assay, Human Calpain 1/NS1. Type of assay: biochemical. The settings on record: read-out: Human Calpain 1/NS1 IC50. The method in brief: (§1)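 Buffer 50 mM Tris pH 7.5/100 mM NaCl/1 mM DTT; enzyme + cpd preinc 25C; start w/ FRET substrate + CaCl2; kinetic 490/520 nm, 10 min; slopes 1-5 min; 4-PL IC50.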

Assay [4] deals with T2, Human Calpain 2/NS1 (Homo sapiens, UniProt P17655).
T2 sequence (P17655 1-700): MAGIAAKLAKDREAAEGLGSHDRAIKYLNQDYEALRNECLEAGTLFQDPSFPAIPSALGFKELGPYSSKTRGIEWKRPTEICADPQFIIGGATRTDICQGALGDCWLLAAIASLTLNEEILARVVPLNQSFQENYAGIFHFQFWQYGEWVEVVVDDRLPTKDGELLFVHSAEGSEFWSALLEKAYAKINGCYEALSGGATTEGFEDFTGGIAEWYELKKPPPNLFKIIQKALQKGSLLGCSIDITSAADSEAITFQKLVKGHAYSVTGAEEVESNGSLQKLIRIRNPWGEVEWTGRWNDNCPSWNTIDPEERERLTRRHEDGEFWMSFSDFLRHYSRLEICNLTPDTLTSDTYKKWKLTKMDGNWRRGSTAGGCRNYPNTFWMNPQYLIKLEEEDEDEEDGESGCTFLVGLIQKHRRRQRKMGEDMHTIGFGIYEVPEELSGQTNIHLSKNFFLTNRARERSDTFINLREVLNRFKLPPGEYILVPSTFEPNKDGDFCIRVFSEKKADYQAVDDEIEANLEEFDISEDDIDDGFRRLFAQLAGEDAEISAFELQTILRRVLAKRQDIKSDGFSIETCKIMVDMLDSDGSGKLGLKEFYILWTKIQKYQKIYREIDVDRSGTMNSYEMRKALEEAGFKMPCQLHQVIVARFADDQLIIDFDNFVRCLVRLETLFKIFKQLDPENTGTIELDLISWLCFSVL
T2 sequence (P04632 1-268 partner): T1 sequence (P04632 1-268 partner)
In words: Calpain inhibition continuous fluorescence (FRET) assay, Human Calpain 2/NS1. Type of assay: biochemical. The settings on record: read-out: Human Calpain 2/NS1 IC50. The method in brief: as §1

Assay [5] deals with T3, Human Calpain 9/NS1 (Homo sapiens, UniProt O14815).
T3 sequence (O14815 1-690): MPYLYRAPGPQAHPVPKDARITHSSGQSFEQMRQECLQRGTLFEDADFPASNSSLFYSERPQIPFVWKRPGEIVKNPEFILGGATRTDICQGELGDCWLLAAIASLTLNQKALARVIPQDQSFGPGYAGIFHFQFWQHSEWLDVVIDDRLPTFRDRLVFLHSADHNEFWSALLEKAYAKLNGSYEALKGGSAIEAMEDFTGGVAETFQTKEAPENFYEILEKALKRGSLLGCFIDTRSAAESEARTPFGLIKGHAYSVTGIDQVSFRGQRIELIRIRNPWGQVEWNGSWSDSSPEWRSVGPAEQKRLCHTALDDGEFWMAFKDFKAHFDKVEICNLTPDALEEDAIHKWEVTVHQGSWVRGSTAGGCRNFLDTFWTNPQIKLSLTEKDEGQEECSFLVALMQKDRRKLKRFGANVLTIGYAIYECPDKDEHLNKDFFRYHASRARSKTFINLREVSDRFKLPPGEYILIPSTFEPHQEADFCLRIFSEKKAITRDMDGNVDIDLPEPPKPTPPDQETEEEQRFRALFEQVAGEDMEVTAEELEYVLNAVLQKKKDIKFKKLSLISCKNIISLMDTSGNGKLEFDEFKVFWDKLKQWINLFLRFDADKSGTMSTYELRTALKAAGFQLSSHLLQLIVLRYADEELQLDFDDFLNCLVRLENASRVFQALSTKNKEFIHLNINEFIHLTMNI
T3 sequence (P04632 1-268 partner): T1 sequence (P04632 1-268 partner)
The experiment in a line: Calpain inhibition continuous fluorescence (FRET) assay, Human Calpain 9/NS1. Type of assay: biochemical. The settings on record: read-out: Human Calpain 9/NS1 IC50. In a few lines:
as §1

Setting [6] is: A23187-induced SBDP-150, western blot.
[7] abbreviates: Column D, A23187-induced SBDP-150.

Like-named read-outs stand apart in the source and are kept apart here.

Regarding `NC(=O)C(=O)C(Cc1ccccc1)NC(=O)c1cn(C2CCC2)nc1-c1ccccc1` (stereo not drawn) [Compound 526, N-(4-amino-3,4-dioxo-1-phenylbutan-2-yl)-1-cyclobutyl-3-phenyl-1H-pyrazole-4-carboxamide], the IC50 in assay [1] (setting [6]) was over 25 µM; in assay [2] it was under 10 µM; in assay [3], under 3 µM; in assay [4], under 3 µM; in assay [5], under 3 µM.
With `Cn1cc(C(=O)N[C@H](C=O)Cc2ccccc2)c(-c2ccccc2)n1` [Compound 317, (S)-1-methyl-N-(1-oxo-3-phenylpropan-2-yl)-3-phenyl-1H-pyrazole-4-carboxamide], the IC50 in assay [1] (setting [6]) was 10 to 25 µM; in assay [2], over 25 µM; in assay [3], under 3 µM; in assay [4], under 3 µM; in assay [5], under 3 µM.
In the case of `Cc1cc(C(=O)N[C@@H](Cc2ccccc2)C(=O)C(N)=O)n(-c2ncc(-c3ccccc3)s2)n1` [Compound 113, (S)—N-(4-amino-3,4-dioxo-1-phenylbutan-2-yl)-3-methyl-1-(5-phenylthiazol-2-yl)-1H-pyrazole-5-carboxamide], the IC50 in assay [1] (setting [7]) was under 10 µM; in assay [2] (Column E), over 25 µM; in assay [3] (Column A), under 3 µM; in assay [4] (Column B) it was under 3 µM; in assay [5] (Column C) it was under 3 µM.
In the case of `CC(NC(=O)c1nsnc1-c1ccccc1)C(=O)C(N)=O` (stereo not drawn) [Compound 468, N-(4-amino-3,4-dioxobutan-2-yl)-4-phenyl-1,2,5-thiadiazole-3-carboxamide], the IC50 was under 10 µM in assay [1] (setting [6]); over 25 µM in assay [2]; under 3 µM in assay [3]; under 3 µM in assay [4]; under 3 µM in assay [5].
Take `NC(=O)C(=O)C(Cc1ccccc1)NC(=O)c1cn(C(F)F)nc1-c1cccc2c1OC(F)(F)O2` (stereo not drawn) [Compound 546, N-(4-amino-3,4-dioxo-1-phenylbutan-2-yl)-3-(2,2-difluorobenzo[d][1,3]dioxol-4-yl)-1-(difluoromethyl)-1H-pyrazole-4-carboxamide]: the IC50 in assay [1] (setting [6]) was under 10 µM; in assay [2] it was under 10 µM; in assay [3], under 3 µM; in assay [4] it was under 3 µM; in assay [5], under 3 µM.
`NC(=O)C(=O)[C@@H](Cc1ccccc1)NC(=O)c1cn(C(F)F)nc1-c1ccccc1` [Compound 380, (R)—N-(4-amino-3,4-dioxo-1-phenylbutan-2-yl)-1-(difluoromethyl)-3-phenyl-1H-pyrazole-4-carboxamide]: the IC50 in assay [1] (setting [6]) was under 10 µM; in assay [2] it was under 10 µM; in assay [3] it was under 3 µM; in assay [4], under 3 µM; in assay [5] it was under 3 µM.
Regarding `Cc1cc(C(=O)N[C@@H](Cc2ccccc2)C(=O)C(N)=O)n(-c2ccc(COc3ccccc3)cc2)n1` [Compound 131, (S)—N-(4-amino-3,4-dioxo-1-phenylbutan-2-yl)-3-methyl-1-(4-(phenoxymethyl)phenyl)-1H-pyrazole-5-carboxamide], the IC50 was 10 to 25 µM in assay [1] (setting [7]); over 25 µM in assay [2] (Column E); under 3 µM in assay [3] (Column A); under 3 µM in assay [4] (Column B); under 3 µM in assay [5] (Column C).
Regarding `NC(=O)C(=O)[C@H](Cc1ccccc1)NC(=O)c1c(-c2ccccc2)noc1C(F)(F)F` [Compound 278, (S)—N-(4-amino-3,4-dioxo-1-phenylbutan-2-yl)-3-phenyl-5-(trifluoromethyl)isoxazole-4-carboxamide], the IC50 in assay [1] (setting [7]) is under 10 µM; in assay [2] (Column E), over 25 µM; in assay [3] (Column A) it was under 3 µM; in assay [4] (Column B) it was under 3 µM; in assay [5] (Column C) it was under 3 µM.
Regarding `CC[C@H](NC(=O)c1cn(C)nc1-c1ccccc1)C(=O)C(N)=O` [Compound 332, (S)—N-(1-amino-1,2-dioxopentan-3-yl)-1-methyl-3-phenyl-1H-pyrazole-4-carboxamide], the IC50 in assay [1] (setting [6]) is over 25 µM; in assay [2] it was over 25 µM; in assay [3] it was under 3 µM; in assay [4], under 3 µM; in assay [5], under 3 µM.
As for `NC(=O)C(=O)C(Cc1ccccc1)NC(=O)c1nsnc1-c1cccc2c1OCO2` (stereo not drawn) [Compound 367, N-(4-amino-3,4-dioxo-1-phenylbutan-2-yl)-4-(benzo[d][1,3]dioxol-4-yl)-1,2,5-thiadiazole-3-carboxamide], the IC50 in assay [1] (setting [6]) was under 10 µM; in assay [2] it was under 10 µM; in assay [3], under 3 µM; in assay [4], under 3 µM; in assay [5], under 3 µM.
For the compound `Cc1cc(C(=O)NC(Cc2ccccc2)C(=O)C(N)=O)n(-c2ccnc(C#N)n2)n1` (stereo not drawn) [Compound 437, N-(4-amino-3,4-dioxo-1-phenylbutan-2-yl)-1-(2-cyanopyrimidin-4-yl)-3-methyl-1H-pyrazole-5-carboxamide], the IC50 in assay [1] (setting [6]) is over 25 µM; in assay [2] it was 10 to 25 µM; in assay [3], under 3 µM; in assay [4] it was under 3 µM; in assay [5], under 3 µM.
Regarding `Cc1cccc(-n2nc(C)cc2C(=O)N[C@@H](Cc2ccccc2)C(=O)C(N)=O)n1` [Compound 84, (S)—N-(4-amino-3,4-dioxo-1-phenylbutan-2-yl)-3-methyl-1-(6-methylpyridin-2-yl)-1H-pyrazole-5-carboxamide], the IC50 was under 10 µM in assay [1] (setting [7]); under 10 µM in assay [2] (Column E); under 3 µM in assay [3] (Column A); under 3 µM in assay [4] (Column B); under 3 µM in assay [5] (Column C).
